Data published in EP0968998A1, “Cosmetic compositions, ceramide analogues with anti-elastase activity and process for their preparation” (ELF ATOCHEM S.A., priority 1998, dated 2000).

How the values were obtained:
stratum corneum [1] = experiment: Skin barrier improvement: transepidermal (insensible) water loss (PIE), Servomed evaporimeter, cream applied to inner forearm; format: in vivo, volontaires sains ayant une peau sèche; conditions: for Perte Insensible en Eau (PIE) M±s: cream with 0,5 % (ex. 7, témoins), 1 % (ex. 4, 8), 5 % (ex. 6)
Excerpt: (§1) Les exemples qui suivent permettent d'illustrer l'invention. […] Les valeurs sont exprimées en nombre d'onde par centimètre. - Résonance magnétique nucléaire (RMN) Les spectres sont réalisés au moyen d'un appareil BRUCKER DRX 500, à 500 MHz (^1H) et 125 MHz (^13C) dans le DMSO-d6. La calibration de l'appareil est effectuée au moyen de DMSO. Les déplacements chimiques sont exprimés en ppm. […] On utilise le N-succinyl-(Ala)3-p-nitroanilide en solution dans le tétrahydrofurane et une solution d'élastase à 100 mg/ml dans un mélange de glycérol et de tampon acétate de sodium (50/50; v/v), pH5. L'activité de l'enzyme est mesurée à 37°C dans 100 mM de tampon Tris-HCI, pH8 contenant 0,01 % de Triton X-100 (volume/volume) et 0,02 % d'azide de sodium (poids/volume). Le céramide à tester, solubilisé dans le tétrahydrofurane (concentration en THF = 0,5 % en volume) est préincubé en présence de l'enzyme (0,05 mg/ml) dans le tampon pendant 5 minutes à 37°C. On ajoute le N-succinyl-(Ala)3-p-nitroanilide (concentration finale : 250 µM) et on mesure la libération de la p-nitroaniline dans une cuve en quartz par spectrophotométrie à 410 nm. La capacité inhibitrice du céramide est exprimée en pourcentage d'inhibition (% I) selon la relation : %I = (1 -(Vi)/(Vo))×100 [formula] dans laquelle Vi et Vo sont les vitesses d'apparition de la p-nitroaniline en présence et en absence d'inhibiteur respectivement. - Mesure de l'amélioration de la barrière cutanée a) mesure de la Perte Insensible en Eau (PIE) La mesure de la PIE permet de quantifier la très faible quantité d'eau qui diffuse passivement à travers le stratum corneum. Ce paramètre représente un très bon index de la fonction barrière du stratum corneum. Cette méthode est surtout utilisée pour contrôler l'efficacité de formules cosmétiques qui, contenant certains types de lipides sont capables de diminuer la PIE et, en conséquence, d'empêcher la déshydratation du stratum corneum. La sonde est laissée en contact de la peau pendant 2 minutes environ de façon à atteindre une position d'équilibre. PIE = D'(dP)/(dx)(gradient de pression de vapeur) [formula] Les valeurs sont exprimées en g/m^2/heure et permettent de calculer un delta de PIE = PIE (peau traitée) - PIE (peau témoin). L'appareil utilisé est un Evaporimètre EPI de Servomed. Les mesures sont effectuées sur deux groupes de 15 volontaires sains ayant une peau sèche, avant l'application du produit (t=0) et après l'application (t=0,5 heure, 1 heure, 3 heures et 6 heures) sur la face interne des deux avant-bras. L'analogue de céramide selon l'invention ou le céramide témoin est incorporé dans une crème ayant la composition suivante (en % en poids) :
(§2) La teneur en analogue de céramide dans la crème est égale à 0,5 % (exemple 7), 1 % (exemples 4 et 8) et 5 % (exemple 6), et celle des céramides témoins (a) et (b) est égale à 0,5 %. La diminution des valeurs de PIE signifie une amélioration de la qualité de la barrière cutanée qui traduit un meilleur pouvoir retentionnel de l'eau au niveau de la couche cornée et donc une meilleure hydratation. b) hydratation cutanée L'eau peut être considérée comme un dipôle électrique capable de conduire l'électricité. Le transport d'électricité dans un champ donné est proportionnel à la quantité d'eau présente dans le stratum corneum. Plus une peau est riche en eau et plus le courant électrique passe rapidement entre 2 électrodes. Il existe donc un lien entre l'hydratation du stratum corneum et les modifications des propriétés électriques. Les mesures de capacitance, liée à la constante diélectrique de la peau, sont réalisées par le Cornéomètre Courage+Khazaka CM 200, dont la sonde présente une surface de contact avec la peau de 49 mm^2; cette sonde est appliquée avec une pression constante sur la surface cutanée à mesurer, et l'indice d'hydratation directement proportionnel au taux hydrique de surface est instantané.

stratum corneum [2] = experiment: Skin hydration: capacitance measurement (Corneometer Courage+Khazaka CM 200), hydration index, cream applied to forearm; format: in vivo, volontaires sains ayant une peau sèche; conditions: for Indice d'Hydratation (IH) M±s: cream with 0,5 % (ex. 7, témoins), 1 % (ex. 4, 8), 5 % (ex. 6)
Excerpt: as §1, §2

[3] = t=0 heure (before application, baseline)

Row | Compound | Perte Insensible en Eau (PIE) M±s (stratum corneum [1]; t=0,5 heure after application) | Perte Insensible en Eau (PIE) M±s (stratum corneum [1]; [3]) | Perte Insensible en Eau (PIE) M±s (stratum corneum [1]; t=1 heure after application) | Perte Insensible en Eau (PIE) M±s (stratum corneum [1]; t=3 heures after application) | Perte Insensible en Eau (PIE) M±s (stratum corneum [1]; t=6 heures after application) | Indice d'Hydratation (IH) M±s (stratum corneum [2]; t=0,5 heure after application) | Indice d'Hydratation (IH) M±s (stratum corneum [2]; [3]) | Indice d'Hydratation (IH) M±s (stratum corneum [2]; t=1 heure after application) | Indice d'Hydratation (IH) M±s (stratum corneum [2]; t=3 heures after application) | Indice d'Hydratation (IH) % évol. (stratum corneum [2]; t=3 heures versus t=0) [%] | Indice d'Hydratation (IH) M±s (stratum corneum [2]; t=6 heures after application) | Perte Insensible en Eau (PIE) % évol. (stratum corneum [1]; t=6 heures versus t=0) [%]
1 | CCCCCCCCCCCCCCCCCC(=O)NC(CO)(CO)COC(=O)CCCCCCCCCCCCCCCCC [Exemple 8, 1-stéaroyl-2-hydroxyméthyl-2-stéaroylamino-1,3-propanediol] | 4,28±1,38 g/m^2/heure | 4,52±1,02 g/m^2/heure | 3,12±1,11 g/m^2/heure | 4,62±1,14 g/m^2/heure | 4,55±1,39 g/m^2/heure | 67,16±7,98 | 64,13±8,01 | 67,04±7,74 | 64,13±8,37 | 0 | 64,87±7,83 | 
2 | CCCCCCCCCCCCCCCCCC(=O)N[C@@H](CO)[C@H](O)[C@H](O)CCCCCCCCCCCCCC [Témoin (b), N-stéaroyl phytosphingosine, reference compound] | 4,09±1,86 g/m^2/heure | 4,22±2,17 g/m^2/heure | 3,80±1,75 g/m^2/heure | 3,53±1,57 g/m^2/heure | 4,36±1,82 g/m^2/heure | 67,55±7,89 | 61,00±7,21 | 67,45±7,33 | 63,20±5,36 |  | 61,36±3,79 | 
3 | CCCCCCCCCCCCCCCCCC(=O)NC(C)(CO)COC(=O)CCCCCCCCCCCCCCCCC (stereo not shown) [Exemple 7, 1-stéaroyl-2-méthyl-2-stéaroylamino-1,3-propanediol] | 4,07±1,72 g/m^2/heure | 4,50±2,0 g/m^2/heure | 3,78±1,67 g/m^2/heure | 3,70±1,50 g/m^2/heure | 4,46±1,64 g/m^2/heure | 66,13±5,48 | 60,13±6,27 | 65,56±6,24 | 63,82±7,05 |  | 61,55±6,32 | 
4 | N-stéaroyl-D,L-sphingosine [Témoin (a), reference compound] | 3,91±1,40 g/m^2/heure | 4,40±0,90 g/m^2/heure | 3,37±1,00 g/m^2/heure | 4,20±1,09 g/m^2/heure | 4,11±1,41 g/m^2/heure | 67,11±7,74 | 63,95±8,45 | 67,93±9,08 | 62,67±6,59 |  | 63,47±6,46 | 
5 | CCCCCCCC/C=C\CCCCCCCC(=O)NC(CC)(CO)COC(=O)CCCCCCC/C=C\CCCCCCCC (stereo not shown) [Exemple 6, 1-oléoyl-2-éthyl-2-oléoylamino-1,3-propanediol] | 3,67±1,34 g/m^2/heure | 3,96±1,60 g/m^2/heure | 3,48±1,19 g/m^2/heure | 3,39±1,20 g/m^2/heure | 3,97±1,20 g/m^2/heure | 78,53±6,23 | 61,91±6,90 | 75,29±7,78 | 67,05±5,61 |  | 64,56±6,14 | 0
